The source of these data is paper PMC9843700 (Nature biotechnology, 2021).

In series [1] the test system is Ebola virus (EBOV/May-eGFP). Nature of the series: microbe, parasite or virus in culture. The settings on record: Zaire ebolavirus, read-out: IC50, EBOV infection inhibition. Format: cell-based.
In series [2] the test system is SARS CoV-2 (USA_WA1/2020). Format: cell-based.
Another series relates to cell viability. The experiment in a line: ATP content assay for cell viability and compound cytotoxicity.

What is called IC50 is the concentration at which inhibition is half-maximal. For the compound `CCOC(=O)c1c(CSc2ccccc2)n(C)c2cc(Br)c(O)c(CN(C)C)c12` [umifenovir], the IC50 in series [1] was no more than 5 µM.

On to `Cc1cccc(C=NNc2cc(N3CCOCC3)nc(N3CCOCC3)n2)c1` [MLS000699212-03, Benzaldehyde, 3-methyl-, 2-(2,6-di-4-morpholinyl-4-pyrimidinyl) hydrazone], for which the “selectivity index (SI)” value in series [2] is listed as 28. Further, the IC50 stood at 0.5 µM in series [2] (read-out: IC50, SARS-CoV-2 CPE assay) and 14 µM in the series with cell viability (read-out: cytotoxicity IC50 (cell viability), counter assay to CPE). In addition, the “inhibition of cell viability (slight cytotoxicity)” value in the series on cell viability (maximal effect) is recorded as 55%.

Turning to `CC(C(O)c1ccccc1)N(C)CCOC(c1ccccc1)c1ccccc1` (stereo not drawn) [difeterol], the IC50 in series [1] was no more than 5 µM.
